Values after ≈ are worked out from the molar mass of the structure shown.
Columns and labels:
[1] = test system: Moraxella catarrhalis (M. catarrhalis) 25238; test: Antibacterial activity, MIC (Table 7); format: cell-based
How it was run: (§1)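 Broth microdilution MIC, read as the lowest drug concentration preventing macroscopically visible growth under test conditions and reported in μg/mL.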

K. pneumoniae MXX1232 = test: Antibacterial activity, MIC, resistant strain (Table 4); format: cell-based; conditions: Klebsiella pneumoniae, MXX1232; resistant K. pneumoniae MMX1232, multi-drug resistant clinical isolate; read-out: MIC, MMX1232
How it was run: (§2)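 Broth microdilution; MIC (μg/mL) = lowest concentration with no macroscopically visible growth. Resistant strains: multi-drug resistant clinical isolates.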

A. baumannii MXX2240 = test: as above; format: cell-based; conditions: Acinetobacter baumannii, MXX2240; resistant A. baumannii MMX2240, multi-drug resistant clinical isolate; read-out: MIC, MMX2240
How it was run: as §2

E. coli ELZ4251 = test: Antibacterial activity, MIC, multi-drug resistant clinical isolate (Table 3); format: cell-based; conditions: Escherichia coli
How it was run: (§3)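 MIC (μg/mL) read as lowest concentration with no macroscopically visible growth, determined by microbroth dilution.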

E. coli ELZ4000 = test: as above; format: cell-based; conditions: Escherichia coli, ELZ4000, read-out: MIC ELZ4000
How it was run: as §3

[2] = test system: Klebsiella pneumoniae (K. pneumoniae) 35657; test: Antibacterial activity, MIC (Table 4); format: cell-based; conditions: K. pneumoniae 35657, read-out: MIC, 35657
How it was run: as §2

[3] = test system: Acinetobacter baumannii (A. baumannii) BAA747; test: Antibacterial activity, MIC (Table 4); format: cell-based; conditions: A. baumannii BAA747, read-out: MIC, BAA747
How it was run: as §2

[4] = test system: Haemophilus influenzae (H. influenzae) 49247; test: Antibacterial activity, MIC (Table 6); format: cell-based
How it was run: as §1

[5] = test system: Pseudomonas aeruginosa (P. aeruginosa) 27853; test: Antibacterial activity, MIC (Table 5); format: cell-based; conditions: P. aeruginosa 27853, read-out: MIC, 27853
How it was run: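 Microbroth dilution; MIC (μg/mL) = lowest concentration with no macroscopically visible growth.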

E. coli LZ3111 = test: Antibacterial activity, MIC, quinolone resistant strain (Table 2); format: cell-based; conditions: Escherichia coli, LZ3111, read-out: MIC LZ3111
How it was run: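 Broth microdilution. Read-out: MIC in μg/mL, taken as lowest concentration with no macroscopically visible growth.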

E. coli 25922 = test: Antibacterial activity, microbroth dilution MIC (Table 1); format: cell-based, Escherichia coli; conditions: Escherichia coli; microbroth dilution; control Gram-negative E. coli 25922 strain; read-out: MIC, 25922
How it was run: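 Each strain is exposed to test compound in a microbroth dilution series; visible growth is scored macroscopically, and the lowest growth-free concentration is recorded as MIC in μg/mL.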

[6] = test system: Neisseria meningitidis (N. meningitidis) 13090; test: Antibacterial activity, MIC (Table 8); format: cell-based
How it was run: as §1

[7] = test system: Escherichia coli (E. coli) BAS849; test: Antibacterial activity, microbroth dilution MIC (Table 1); format: cell-based; conditions: microbroth dilution, super sensitive Gram-negative E. coli BAS849, read-out: MIC, BAS849
How it was run: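 Read-out: visual absence of growth. The lowest concentration meeting this gives the MIC, expressed in μg/mL, with microbroth dilution as the method.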

[8] = test system: Staphylococcus aureus (S. aureus) 29213; test: as above; format: cell-based; conditions: microbroth dilution, Gram-positive S. aureus 29213, read-out: MIC, 29213
How it was run: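 Potency is reported as minimum inhibitory concentration in μg/mL, determined by broth microdilution as the lowest level of compound that stops growth visible to the eye.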

Row | SMILES | MIC [1] [µg/mL] | MIC (K. pneumoniae MXX1232) [µg/mL] | MIC (A. baumannii MXX2240) [µg/mL] | MIC (E. coli ELZ4251) [µg/mL] | MIC (E. coli ELZ4000) [µg/mL] | MIC [2] [µg/mL] | MIC [3] [µg/mL] | MIC [4] [µg/mL] | MIC [5] [µg/mL] | MIC (E. coli LZ3111) [µg/mL] | MIC (E. coli 25922) [µg/mL] | MIC [6] [µg/mL] | MIC [7] [µg/mL] | MIC [8] [µg/mL]
1 | CCc1c(-c2ccc3c(c2)cc(CN)n3C)[nH]c(=O)c(C(=O)O)c1O [Cpd 290, 6-(2-(aminomethyl)-1-methyl-1H-indol-5-yl)-5-ethyl-4-hydroxy-2-oxo-1,2-dihydropyridine-3-carboxylic acid] | 1 to 3.5 (≈ 2.93 to 10.3 µM) | 12.5 to 150 (≈ 36.6 to 439 µM) | 12.5 to 150 (≈ 36.6 to 439 µM) | 3.5 to 12.5 (≈ 10.3 to 36.6 µM) | 3.5 to 12.5 (≈ 10.3 to 36.6 µM) | 3.5 to 12.5 (≈ 10.3 to 36.6 µM) | 1 to 3.5 (≈ 2.93 to 10.3 µM) | 1 to 3.5 (≈ 2.93 to 10.3 µM) | 1 to 3.5 (≈ 2.93 to 10.3 µM) | 1 to 3.5 (≈ 2.93 to 10.3 µM) | < 1 | < 1 | < 1 | 3.5 to 12.5 (≈ 10.3 to 36.6 µM)
2 | CCc1c(-c2ccc3c(c2)cc(CNCc2ccc(OC)cc2)n3C)[nH]c(=O)c(C(=O)O)c1O [Cpd 291, 5-ethyl-4-hydroxy-6-(2-((4-methoxybenzylamino)methyl)-1-methyl-1H-indol-5-yl)-2-oxo-1,2-dihydropyridine-3-carboxylic acid] | < 1 | 12.5 to 150 (≈ 27.1 to 325 µM) | 1 to 3.5 (≈ 2.17 to 7.58 µM) | 12.5 to 150 (≈ 27.1 to 325 µM) | 12.5 to 150 (≈ 27.1 to 325 µM) | 3.5 to 12.5 (≈ 7.58 to 27.1 µM) | 1 to 3.5 (≈ 2.17 to 7.58 µM) | < 1 | 12.5 to 150 (≈ 27.1 to 325 µM) | 1 to 3.5 (≈ 2.17 to 7.58 µM) | < 1 | < 1 | < 1 | 3.5 to 12.5 (≈ 7.58 to 27.1 µM)
3 | CCc1c(-c2ccc3c(c2)cc2n3CCNC2)[nH]c(=O)c(C(=O)O)c1O [Cpd 305, 5-ethyl-4-hydroxy-2-oxo-6-(1,2,3,4-tetrahydropyrazino[1,2-a]indol-8-yl)-1,2-dihydropyridine-3-carboxylic acid] | < 1 | 12.5 to 150 (≈ 35.4 to 424 µM) | 12.5 to 150 (≈ 35.4 to 424 µM) | 3.5 to 12.5 (≈ 9.9 to 35.4 µM) | 12.5 to 150 (≈ 35.4 to 424 µM) | < 1 | 1 to 3.5 (≈ 2.83 to 9.9 µM) | < 1 | 3.5 to 12.5 (≈ 9.9 to 35.4 µM) | 3.5 to 12.5 (≈ 9.9 to 35.4 µM) | < 1 | < 1 | < 1 | 3.5 to 12.5 (≈ 9.9 to 35.4 µM)
4 | Cc1c(-c2ccc3c(c2)cc(CN(C)C)n3C)[nH]c(=O)c(C(=O)O)c1O [Cpd 314, 6-(2-((dimethylamino)methyl)-1-methyl-1H-indol-5-yl)-4-hydroxy-5-methyl-2-oxo-1,2-dihydropyridine-3-carboxylic acid] | 3.5 to 12.5 (≈ 9.85 to 35.2 µM) | 12.5 to 150 (≈ 35.2 to 422 µM) | 1 to 3.5 (≈ 2.81 to 9.85 µM) | 1 to 3.5 (≈ 2.81 to 9.85 µM) | 3.5 to 12.5 (≈ 9.85 to 35.2 µM) | 3.5 to 12.5 (≈ 9.85 to 35.2 µM) | 3.5 to 12.5 (≈ 9.85 to 35.2 µM) | 1 to 3.5 (≈ 2.81 to 9.85 µM) | 12.5 to 150 (≈ 35.2 to 422 µM) | 1 to 3.5 (≈ 2.81 to 9.85 µM) | 3.5 to 12.5 (≈ 9.85 to 35.2 µM) | < 1 | < 1 | 12.5 to 150 (≈ 35.2 to 422 µM)
5 | Cc1c(-c2ccc3c(c2)cc(CNCC2CC2)n3C)[nH]c(=O)c(C(=O)O)c1O [Cpd 315, 6-(2-((cyclopropylmethylamino)methyl)-1-methyl-1H-indol-5-yl)-4-hydroxy-5-methyl-2-oxo-1,2-dihydropyridine-3-carboxylic acid] | 3.5 to 12.5 (≈ 9.18 to 32.8 µM) | 12.5 to 150 (≈ 32.8 to 393 µM) | 1 to 3.5 (≈ 2.62 to 9.18 µM) | < 1 | 1 to 3.5 (≈ 2.62 to 9.18 µM) | 1 to 3.5 (≈ 2.62 to 9.18 µM) | 1 to 3.5 (≈ 2.62 to 9.18 µM) | 1 to 3.5 (≈ 2.62 to 9.18 µM) | 12.5 to 150 (≈ 32.8 to 393 µM) | < 1 | 1 to 3.5 (≈ 2.62 to 9.18 µM) | < 1 | < 1 | 12.5 to 150 (≈ 32.8 to 393 µM)
6 | Cc1c(-c2ccc3c(c2)cc(CN2CCC2)n3C)[nH]c(=O)c(C(=O)O)c1O [Cpd 316, 6-(2-(azetidin-1-ylmethyl)-1-methyl-1H-indol-5-yl)-4-hydroxy-5-methyl-2-oxo-1,2-dihydropyridine-3-carboxylic acid] | 3.5 to 12.5 (≈ 9.53 to 34 µM) | 12.5 to 150 (≈ 34 to 408 µM) | 1 to 3.5 (≈ 2.72 to 9.53 µM) | 3.5 to 12.5 (≈ 9.53 to 34 µM) | 3.5 to 12.5 (≈ 9.53 to 34 µM) | 3.5 to 12.5 (≈ 9.53 to 34 µM) | 3.5 to 12.5 (≈ 9.53 to 34 µM) | 1 to 3.5 (≈ 2.72 to 9.53 µM) | 12.5 to 150 (≈ 34 to 408 µM) | < 1 | 1 to 3.5 (≈ 2.72 to 9.53 µM) | 12.5 to 150 (≈ 34 to 408 µM) | < 1 | 12.5 to 150 (≈ 34 to 408 µM)
7 | CNCc1cc2cc(-c3[nH]c(=O)c(C(=O)O)c(O)c3C)ccc2n1C [Cpd 317, 4-hydroxy-5-methyl-6-(1-methyl-2-((methylamino)methyl)-1H-indol-5-yl)-2-oxo-1,2-dihydropyridine-3-carboxylic acid] | 3.5 to 12.5 (≈ 10.3 to 36.6 µM) | 3.5 to 12.5 (≈ 10.3 to 36.6 µM) | 1 to 3.5 (≈ 2.93 to 10.3 µM) | < 1 | 1 to 3.5 (≈ 2.93 to 10.3 µM) | 1 to 3.5 (≈ 2.93 to 10.3 µM) | 3.5 to 12.5 (≈ 10.3 to 36.6 µM) | 1 to 3.5 (≈ 2.93 to 10.3 µM) | 12.5 to 150 (≈ 36.6 to 439 µM) | < 1 | 1 to 3.5 (≈ 2.93 to 10.3 µM) | < 1 | < 1 | 12.5 to 150 (≈ 36.6 to 439 µM)

Reference: US9409905B2, “Antibacterial compounds and methods for use” (PTC THERAPEUTICS, INC., priority 2011, dated 2016)
